The results in this text go back to patent US20130197480A1, “METHODS AND SYSTEMS FOR DELIVERY OF LIVE CELLS” (PALOMAR MEDICAL TECHNOLOGIES, INC., priority 2012, published 2013).

The data set deals with Human fibroblast cells in culture. The data set is described as follows: Common laser pre-treatment compounds incubated 45 min with cultured human fibroblasts, visual inspection. Conditions: for Viability/Inspection 24 hrs / Viability/Inspector 1 week: cells rinsed, fresh media; for Viability/Inspection 24 hrs: observed 24 hours post exposure; for Viability/Inspector 1 week: observed one week post exposure; for Viability/nspection 45 min: visual inspection after 45 minutes incubation with compound.

Description: AG07999 human skin fibroblasts (HSF; Coriell, Camden, N.J.) were grown to confluence in minimal essential media (MEM; Gibco, Grand Island, N.Y.) supplemented with 10% FBS (Hyclone, Logan, Utah), 20 mM L-glutamine, and 20 mM Glutamax™ (Gibco). Cells were maintained in an incubator at 37° C. and 5% CO2 and serially passaged with trypsin digestion at a 1:3 ratio as needed.
This example describes in vitro (in silico) testing of compounds added to human fibroblast cell cultures to determine any detrimental effects to the cells.
The remaining compositions and mixtures were tested as they are expected to be common treatments that might be used for numbing or cleansing of skin prior to laser treatment and cell delivery, or coagulation compounds, that are available in most physician offices. […] In addition, the delivery vehicle for SRF and lidocaine were tested to determine which vehicle (cream, lotion, petrolatum, lipoderm) was least destructive to the cells.

On to `CNC[C@H](O)c1ccc(O)c(O)c1` [Epinephrine 1:10,000,000, Epinephrine], for which the “Viability/Inspection 24 hrs” value was “Normal”, the “Viability/Inspector 1 week” value is “Confluent/overgrown” and the “Viability/nspection 45 min” value is reported as “Normal”.
Take `CNC[C@H](O)c1ccc(O)c(O)c1` [Epinephrine 1:100,000, Epinephrine]: the “Viability/Inspection 24 hrs” value is on record as “Normal”, the “Viability/Inspector 1 week” value is listed as “Confluent/overgrown” and the “Viability/nspection 45 min” value is reported as “Slight change in morphology,”.
In the case of `CCN(CC)CC(=O)Nc1c(C)cccc1C` [Lidocaine 0.5%, Lidocaine], the “Viability/Inspection 24 hrs” value is recorded as “Normal”, the “Viability/Inspector 1 week” value is reported as “Confluent/overgrown” and the “Viability/nspection 45 min” value was “Normal”.
